# Measurements from US11214590B2, “Photoresponsive nucleotide analog capable of photocrosslinking in visible light region” (JAPAN ADVANCED INSTITUTE OF SCIENCE AND TECHNOLOGY, priority 2017, dated 2022).
# Key:
# [1] = system: cODN; assay: Photocrosslinking test with SPCX, UPLC analysis; assay type: biochemical
# Experimental: The experiment was carried out as described below using the following ODN (^SPCX) and cODN:
# 10 μM of ODN (^SPCX) and 10 μM of cODN were dissolved in a 50 mM cacodylic acid buffer (pH 7.4) containing 100 mM of NaCl, and then heated at 90° C. for 1 minute, and then cooled at 4° C. Irradiation with light having 450 nm (LED) was carried out at 4° C. Analysis was then carried out by UPLC. The analysis conditions for UPLC are as follows. The measurement was carried out at a measurement wavelength of 260 nm and at a flow rate of 0.2 mL/min, using a mixed solution of ammonium formate and acetonitrile in which the initial conditions were 99% of ammonium formate and […], and 85% of ammonium formate and 15% of acetonitrile at the end of the analysis (10 minutes).
# [2] = system: nucleic acids; details: irradiation with light having 350 nm; cited from earlier work
compound,measurement,setting,value
5'-TGCA^SPCXCCGT-3' [ODN (^SPCX)],progress of photocrosslinking reaction (UPLC peaks),"[1]; 450 nm (LED), 4° C., 10 μM ODN and 10 μM cODN",progress of the photocrosslinking reaction was confirmed
O=c1ccc2cc3ccoc3cc2o1 [psoralen],time required for photoreaction,[2],several hours
OC[C@H]1O[C@@H](n2c3ccccc3c3cc4ccc(=S)oc4cc32)CC1O (stereo partly shown) [^SPCX],photoreactivity compared with pyranocarbazole (PCX),[1]; irradiation with light having 450 nm,higher photoreactivity
same,light irradiation time giving photocrosslinking,"[1]; irradiation with light having 450 nm, 4° C.",10 s
